{"source": "patent US8513187B2", "about": "“Soft protease inhibitors, and pro-soft forms thereof” (priority 2009, dated 2013)", "key": {"[1]": {"biological_target": "DPP IV (Homo sapiens, UniProt P27487)", "sequence (P27487 whole entry, species assumed)": "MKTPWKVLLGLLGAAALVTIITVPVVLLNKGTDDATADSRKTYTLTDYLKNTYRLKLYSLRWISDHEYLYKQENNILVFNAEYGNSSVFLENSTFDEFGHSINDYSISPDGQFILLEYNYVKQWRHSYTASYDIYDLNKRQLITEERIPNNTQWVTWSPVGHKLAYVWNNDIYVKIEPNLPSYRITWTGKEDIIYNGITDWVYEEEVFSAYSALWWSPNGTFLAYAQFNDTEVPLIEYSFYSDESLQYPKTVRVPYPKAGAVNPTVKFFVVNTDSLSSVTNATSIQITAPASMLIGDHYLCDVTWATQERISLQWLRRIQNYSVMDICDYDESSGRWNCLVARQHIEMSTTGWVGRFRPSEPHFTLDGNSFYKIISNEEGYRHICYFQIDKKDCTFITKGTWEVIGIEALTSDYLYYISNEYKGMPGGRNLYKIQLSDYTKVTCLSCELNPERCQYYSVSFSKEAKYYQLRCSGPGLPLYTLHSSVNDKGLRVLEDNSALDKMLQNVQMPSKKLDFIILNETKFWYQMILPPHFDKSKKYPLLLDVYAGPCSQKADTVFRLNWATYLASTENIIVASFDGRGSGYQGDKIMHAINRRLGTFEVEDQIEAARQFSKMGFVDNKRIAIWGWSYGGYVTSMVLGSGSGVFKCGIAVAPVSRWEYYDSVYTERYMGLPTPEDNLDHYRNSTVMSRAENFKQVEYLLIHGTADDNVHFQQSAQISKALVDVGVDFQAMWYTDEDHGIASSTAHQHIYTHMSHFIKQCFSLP", "experiment": "In vitro DPP IV inhibition assay (IC50, GP-AMC substrate)", "assay_type": "biochemical", "settings": "potency ratio versus oxy-analog compound 11", "description": "(§1) FIG. 6 depicts a table outlining various in vitro and in vivo assay results for DPP inhibitors. CLogP values were calculated using ChemDraw Ultra version 11.0. […] All except PREP used the same substrate (GP-AMC), but different concentrations (10 μM for DPP IV, 25 μM for DPP8 and DPP9, and 50 μM for FAP).\n(§2) The methods of biological testing used are described in International Patent Application PCT/US06/047853, published as WO/2007/100374, which claims priority to U.S. Provisional Patent Application No. 60/752,017. These methods are herein incorporated in their entirety by reference.\n(§3) FIGS. 6-9 depict the results from various biological assays. The CLogP values in these figures were calculated using ChemDraw Ultra version 11.0."}, "[2]": {"biological_target": "T1, PREP (Homo sapiens, UniProt P48147)", "T1 sequence (P48147 1-710)": "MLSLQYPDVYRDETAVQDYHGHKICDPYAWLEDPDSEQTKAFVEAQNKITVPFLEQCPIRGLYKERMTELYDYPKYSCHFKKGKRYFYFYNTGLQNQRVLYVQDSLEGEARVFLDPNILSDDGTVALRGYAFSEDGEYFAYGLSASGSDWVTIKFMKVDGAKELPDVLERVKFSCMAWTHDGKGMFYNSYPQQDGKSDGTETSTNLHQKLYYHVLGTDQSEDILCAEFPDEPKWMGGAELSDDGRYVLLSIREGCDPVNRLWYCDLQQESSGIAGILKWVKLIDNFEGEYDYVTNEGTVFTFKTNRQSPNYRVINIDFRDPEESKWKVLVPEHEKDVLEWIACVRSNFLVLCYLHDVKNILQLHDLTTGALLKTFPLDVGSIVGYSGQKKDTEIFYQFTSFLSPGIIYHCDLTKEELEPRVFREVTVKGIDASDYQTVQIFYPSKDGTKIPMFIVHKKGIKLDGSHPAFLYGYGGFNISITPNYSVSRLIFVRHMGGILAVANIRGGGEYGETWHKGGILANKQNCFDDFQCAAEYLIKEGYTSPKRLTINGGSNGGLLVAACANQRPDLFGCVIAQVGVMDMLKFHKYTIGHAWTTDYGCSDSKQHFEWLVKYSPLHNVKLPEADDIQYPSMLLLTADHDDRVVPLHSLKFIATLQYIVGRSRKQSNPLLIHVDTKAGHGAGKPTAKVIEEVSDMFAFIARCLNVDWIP", "experiment": "In vitro PREP inhibition assay", "assay_type": "biochemical", "description": "(§4) FIG. 6 depicts a table outlining various in vitro and in vivo assay results for DPP inhibitors. CLogP values were calculated using ChemDraw Ultra version 11.0. […] The methods of biological testing used are described in International Patent Application PCT/US06/047853, published as WO/2007/100374, which claims priority to U.S. […] These methods are herein incorporated in their entirety by reference. FIGS. 6-9 depict the results from various biological assays. The CLogP values in these figures were calculated using ChemDraw Ultra version 11.0."}, "[3]": {"biological_target": "T2, DPP9 (Homo sapiens, UniProt Q86TI2)", "T2 sequence (Q86TI2 whole entry, species assumed)": "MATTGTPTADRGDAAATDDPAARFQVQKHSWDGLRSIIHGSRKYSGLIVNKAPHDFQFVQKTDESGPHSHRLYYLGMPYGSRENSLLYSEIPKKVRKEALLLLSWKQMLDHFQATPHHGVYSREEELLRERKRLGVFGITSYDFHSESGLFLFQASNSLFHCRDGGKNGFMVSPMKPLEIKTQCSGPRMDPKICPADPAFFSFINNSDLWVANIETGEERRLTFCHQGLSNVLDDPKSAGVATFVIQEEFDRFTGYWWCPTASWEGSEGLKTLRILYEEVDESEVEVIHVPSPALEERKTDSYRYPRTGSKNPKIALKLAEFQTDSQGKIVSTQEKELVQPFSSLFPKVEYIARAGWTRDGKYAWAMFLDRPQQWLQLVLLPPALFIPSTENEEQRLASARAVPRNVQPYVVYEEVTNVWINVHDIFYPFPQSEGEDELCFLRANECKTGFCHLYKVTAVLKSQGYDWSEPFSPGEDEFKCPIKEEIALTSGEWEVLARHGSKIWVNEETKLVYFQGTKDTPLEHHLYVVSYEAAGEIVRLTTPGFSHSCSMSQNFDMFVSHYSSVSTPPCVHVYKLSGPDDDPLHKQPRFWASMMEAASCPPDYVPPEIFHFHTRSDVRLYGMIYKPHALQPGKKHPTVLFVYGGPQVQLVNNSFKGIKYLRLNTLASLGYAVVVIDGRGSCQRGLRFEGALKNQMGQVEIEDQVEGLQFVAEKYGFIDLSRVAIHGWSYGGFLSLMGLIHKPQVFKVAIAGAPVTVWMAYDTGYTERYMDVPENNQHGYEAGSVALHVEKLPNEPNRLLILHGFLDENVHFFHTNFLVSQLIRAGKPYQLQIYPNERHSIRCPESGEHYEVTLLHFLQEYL", "experiment": "In vitro DPP9 inhibition assay (IC50, GP-AMC substrate)", "assay_type": "biochemical", "settings": "DPP IV versus DPP9", "description": "as §1, §2, §3"}, "[4]": {"test_system": "Sprague-Dawley (SD) rats", "settings": "rat, in vivo, 300 mg/kg", "method": "In an experiment, 13 male SD rats were given 300 mg/kg of compound 5."}, "[5]": {"biological_target": "T2, DPP9", "experiment": "Intracellular IC50 (IC-IC50), intracellular potency against DPP9", "assay_type": "cell-based", "settings": "compounds preincubated at pH 2.0 for 4 h", "from_the_text": "It is important to note that IC-IC50 is not a measure of cell permeability. Like IC50, it is a composite of factors, including cell permeability, potency against DPP9, rate and equilibrium of the intramolecular cyclization reaction, and inhibitor stability, both intrinsic and intracellular."}, "[6]": {"biological_target": "DPP8 (Homo sapiens, UniProt Q6V1X1)", "sequence (Q6V1X1 whole entry, species assumed)": "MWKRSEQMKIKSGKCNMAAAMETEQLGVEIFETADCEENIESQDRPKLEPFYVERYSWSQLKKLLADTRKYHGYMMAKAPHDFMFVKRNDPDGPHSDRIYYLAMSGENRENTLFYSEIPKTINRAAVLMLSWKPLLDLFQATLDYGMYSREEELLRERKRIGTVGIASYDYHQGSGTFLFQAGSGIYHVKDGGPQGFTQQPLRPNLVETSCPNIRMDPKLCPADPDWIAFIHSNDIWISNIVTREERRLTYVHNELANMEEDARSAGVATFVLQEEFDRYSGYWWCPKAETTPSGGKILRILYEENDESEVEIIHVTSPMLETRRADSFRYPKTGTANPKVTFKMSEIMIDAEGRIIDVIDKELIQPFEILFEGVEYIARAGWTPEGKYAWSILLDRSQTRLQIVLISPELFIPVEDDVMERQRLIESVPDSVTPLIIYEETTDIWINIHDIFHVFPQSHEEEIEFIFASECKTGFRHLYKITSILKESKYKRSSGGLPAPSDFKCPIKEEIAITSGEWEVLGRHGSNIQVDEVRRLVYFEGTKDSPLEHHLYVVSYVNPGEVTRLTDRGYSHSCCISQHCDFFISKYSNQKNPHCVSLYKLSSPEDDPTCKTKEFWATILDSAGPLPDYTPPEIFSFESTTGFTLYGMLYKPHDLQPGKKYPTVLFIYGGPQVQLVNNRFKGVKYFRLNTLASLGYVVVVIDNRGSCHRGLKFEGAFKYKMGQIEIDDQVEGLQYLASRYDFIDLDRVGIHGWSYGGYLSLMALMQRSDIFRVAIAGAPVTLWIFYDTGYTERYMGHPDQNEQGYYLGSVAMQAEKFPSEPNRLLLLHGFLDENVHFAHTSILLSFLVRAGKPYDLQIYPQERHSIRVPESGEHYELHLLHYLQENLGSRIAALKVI", "experiment": "In vitro DPP8 inhibition assay (IC50, GP-AMC substrate)", "assay_type": "biochemical", "settings": "DPP IV versus DPP8", "description": "as §1, §2, §3"}, "[7]": {"biological_target": "T3, FAP (Homo sapiens, UniProt Q12884)", "T3 sequence (Q12884 1-760)": "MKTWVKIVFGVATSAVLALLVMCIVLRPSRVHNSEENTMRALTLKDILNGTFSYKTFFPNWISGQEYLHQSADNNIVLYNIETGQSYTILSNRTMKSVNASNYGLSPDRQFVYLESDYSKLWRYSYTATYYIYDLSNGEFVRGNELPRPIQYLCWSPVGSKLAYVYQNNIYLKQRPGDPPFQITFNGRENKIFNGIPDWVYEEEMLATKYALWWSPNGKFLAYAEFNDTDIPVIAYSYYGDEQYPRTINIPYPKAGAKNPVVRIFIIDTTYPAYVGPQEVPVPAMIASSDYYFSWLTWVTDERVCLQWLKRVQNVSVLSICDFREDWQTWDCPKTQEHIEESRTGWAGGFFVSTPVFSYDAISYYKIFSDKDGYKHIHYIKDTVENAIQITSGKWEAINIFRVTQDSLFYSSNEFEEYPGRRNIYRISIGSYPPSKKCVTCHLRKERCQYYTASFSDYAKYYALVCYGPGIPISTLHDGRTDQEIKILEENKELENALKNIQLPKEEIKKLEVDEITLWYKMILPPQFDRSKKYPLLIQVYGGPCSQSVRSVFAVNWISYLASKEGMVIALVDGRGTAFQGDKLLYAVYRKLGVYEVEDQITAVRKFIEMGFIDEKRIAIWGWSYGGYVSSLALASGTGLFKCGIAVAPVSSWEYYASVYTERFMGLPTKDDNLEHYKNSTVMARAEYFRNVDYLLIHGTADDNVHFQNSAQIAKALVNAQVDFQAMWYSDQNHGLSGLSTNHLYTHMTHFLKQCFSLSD", "experiment": "In vitro FAP inhibition assay (GP-AMC substrate)", "assay_type": "biochemical", "description": "as §4"}}}
{"smiles": "CN(CB(O)O)C(=S)[C@@H](N)CCC(=O)O.Cl", "note": "[Compound 5, Glu-boroSar[thioxo amide]hydrochloride]", "values": [{"measurement": "more potent inhibitor of DPP IV than compound 11", "setting": "[1]", "result": "about 66 fold"}, {"measurement": "selectivity against PREP in vitro", "setting": "[2]", "result": "good selectivity"}, {"measurement": "more potent for DPP IV than for DPP9 (selectivity)", "setting": "[3]", "result": "6,000 ×"}, {"measurement": "signs of toxicity after 24 h", "setting": "[4]", "result": "no sign of toxicity"}, {"measurement": "IC50", "setting": "[5]", "result": 828, "unit": "µM"}, {"measurement": "more potent for DPP IV than for DPP8 (selectivity)", "setting": "[6]", "result": "13,000 ×"}, {"measurement": "selectivity against FAP in vitro", "setting": "[7]", "result": "good selectivity"}]}
